# Measured values published in patent US12060347B2 (BRISTOL-MYERS SQUIBB COMPANY, priority 2016, dated 2024).
# Molecular target: T1, human PAR4 (Homo sapiens, UniProt Q96RI0)
# T1 construct: expressed in transfected cells; host or cells: HEK293 PAR4 Clone 1.2A (BMS Arctic ID 383940)
# T1 sequence (Q96RI0 18-385): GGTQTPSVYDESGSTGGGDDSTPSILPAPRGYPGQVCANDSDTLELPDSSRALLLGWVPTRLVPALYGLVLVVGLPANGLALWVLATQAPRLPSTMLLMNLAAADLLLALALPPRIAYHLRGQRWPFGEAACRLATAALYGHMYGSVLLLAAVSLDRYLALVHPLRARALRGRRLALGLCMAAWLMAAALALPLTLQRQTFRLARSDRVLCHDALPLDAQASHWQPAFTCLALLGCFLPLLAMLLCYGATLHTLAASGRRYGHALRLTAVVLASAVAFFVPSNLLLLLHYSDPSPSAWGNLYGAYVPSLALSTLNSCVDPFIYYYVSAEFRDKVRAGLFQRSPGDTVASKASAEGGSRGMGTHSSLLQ
# Assay: PAR4 FLIPR assay: antagonism of agonist-peptide-induced calcium mobilization in PAR4-expressing HEK293 cells
# Format: cell-based
# Conditions: H-Ala-Phe(4-F)-[…]NH2-induced intracellular calcium mobilization, 11-point curves
row,IC50 [nM],Compound
1,1.3,"COCc1cnc2c(-c3nc4c(C)c(F)c(OCCO)cc4s3)cc(C)cc2n1 [Example 289, 2-((5-fluoro-2-(2-(methoxymethyl)-7-methylquinoxalin-5-yl)-4-methylbenzo[d]thiazol-6-yl)oxy)ethanol]"
2,2,"COCC(COc1cc2sc(-c3cc(C)cc4nc(OC)cnc34)nc2cc1F)OC(=O)Nc1cccnc1 (racemic) [Example 516, 1-((5-fluoro-2-(2-methoxy-7-methylquinoxalin-5-yl)benzo[d]thiazol-6-yl)oxy)-3-methoxypropan-2-yl pyridin-3-ylcarbamate (rac)]"
3,580,"COc1cc(C)c2nc(-c3cc(C)cc4nc(CN(C)C)cnc34)sc2c1 [Example 188, 1-(5-(6-methoxy-4-methylbenzo[d]thiazol-2-yl)-7-methylquinoxalin-2-yl)-N,N-dimethylmethanamine]"
4,3.2,"COc1cnc2c(-c3nc4cc(F)c(O[C@@H](C)[C@@H](C)OC(=O)Nc5cnc(CCO)nc5)nc4s3)cc(C)cc2n1 [Example 720, (2R,3S)-3-((6-fluoro-2-(2-methoxy-7-methylquinoxalin-5-yl)thiazolo[5,4-b]pyridin-5-yl)oxy)butan-2-yl (2-(2-hydroxyethyl)pyrimidin-5-yl)carbamate]"
5,19,"CCc1cnc2c(-c3nc4cc(F)c(O[C@@H](C)[C@@H](C)OC(=O)Nc5cnc(C)nc5)cc4s3)cc(Cl)cc2c1 [Example 647, (2R,3S)-3-((2-(6-chloro-3-ethylquinolin-8-yl)-5-fluorobenzo[d]thiazol-6-yl)oxy)butan-2-yl(2-methylpyrimidin-5-yl)carbamate]"
6,1.1,"CCOc1cnc2c(-c3nc4cc(F)c(O[C@@H](C)[C@@H](C)OC(=O)Nc5cnc(OC[C@@H](C)O)nc5)cc4s3)cc(C)cc2n1 [Example 580, (2R,3S)-3-((2-(2-ethoxy-7-methylquinoxalin-5-yl)-5-fluorobenzo[d]thiazol-6-yl)oxy)butan-2-yl (2-((R)-2-hydroxypropoxy)pyrimidin-5-yl)carbamate]"
7,34,"COC(=O)NCCOc1ccc(C)c2nc(-c3cc(C)cc4nc(OC(F)F)cnc34)sc12 [Example 70, Methyl 2-(2-(2-(difluoromethoxy)-7-methylquinoxalin-5-yl)-4-methylbenzo[d]thiazol-7-yloxy)ethylcarbamate]"
8,0.3,"COc1cnc2c(-c3nc4cc(F)c(O[C@@H](C)[C@@H](C)OC(=O)Nc5cnc(C(N)=O)nc5)nc4s3)cc(C)cc2n1 [Example 755, (2R,3S)-3-((6-fluoro-2-(2-methoxy-7-methylquinoxalin-5-yl)thiazolo[5,4-b]pyridin-5-yl)oxy)butan-2-yl (2-carbamoylpyrimidin-5-yl)carbamate]"
9,2.9,"COc1cnc2c(-c3nc4cc(F)c(O[C@@H](C)[C@@H](C)OC(=O)Nc5ccc(C(C)O)nc5)nc4s3)cc(C)cc2n1 (single isomer, unassigned) [Example 766]"
10,6.9,"COc1cnc2c(-c3nc4c(C)cc(OCCNS(=O)(=O)c5cccnc5)cc4s3)cc(Cl)cc2n1 [Example 249, N-(2-((2-(7-chloro-2-methoxyquinoxalin-5-yl)-4-methylbenzo[d]thiazol-6-yl)oxy)ethyl)pyridine-3-sulfonamide]"
11,120,"Cc1ccc2sc(-c3cc(C)cc4nc(OC(F)F)cnc34)nc2c1 [Example 68, 2-(2-(difluoromethoxy)-7-methylquinoxalin-5-yl)-5-methylbenzo[d]thiazole]"
12,0.83,"COc1cnc2c(-c3nc4cc(F)c(O[C@@H](C)[C@@H](C)OC(=O)Nc5cnc(C)nc5)cc4s3)cc(C(F)F)cc2c1 [Example 653, (2R,3S)-3-((2-(6-(difluoromethyl)-3-methoxyquinolin-8-yl)-5-fluorobenzo[d]thiazol-6-yl)oxy)butan-2-yl (2-methylpyrimidin-5-yl)carbamate]"
13,8.1,"Cc1cc(-c2nc3c(Cl)cccc3s2)c2ncc(OC(F)F)nc2c1 [Example 8, 4-chloro-2-(2-(difluoromethoxy)-7-methylquinoxalin-5-yl)benzo[d]thiazole]"
14,1.4,"C=Cc1cc(-c2nc3c(C)cc(OCCNS(=O)(=O)c4ccc(F)cc4)cc3s2)c2ncc(COC)nc2c1 [Example 234, 4-fluoro-N-(2-((2-(2-(methoxymethyl)-7-vinylquinoxalin-5-yl)-4-methylbenzo[d]thiazol-6-yl)oxy)ethyl)benzenesulfonamide]"
15,3.8,"COc1cc(C(C)O)c2nc(-c3cc(C)cc4nc(OC)cnc34)sc2c1 (centres unmarked) [Example 677, 1-(6-methoxy-2-(2-methoxy-7-methylquinoxalin-5-yl)benzo[d]thiazol-4-yl)ethan-1-ol]"
16,0.8,"COc1cnc2c(-c3nc4cc(F)c(OC[C@@H](C)OC(=O)Nc5ccncc5)nc4s3)cc(C)cc2n1 [Example 680, (R)-1-((6-fluoro-2-(2-methoxy-7-methylquinoxalin-5-yl)thiazolo[5,4-b]pyridin-5-yl)oxy) propan-2-yl pyridin-4-ylcarbamate]"
17,0.7,"COc1cnc2c(-c3nc4cc(F)c(OC[C@@H](C)OC(=O)Nc5ccc(CC(C)(C)O)nc5)cc4s3)cc(C)cc2n1 [Example 557, (R)-1-((5-fluoro-2-(2-methoxy-7-methylquinoxalin-5-yl)benzo[d]thiazol-6-yl)oxy)propan-2-yl (6-(2-hydroxy-2-methylpropyl)pyridin-3-yl)carbamate]"
18,6.4,"COc1cnc2c(-c3nc4cc(F)c(O[C@@H](C)[C@@H](C)OC(=O)Nc5ccc(N)nc5)cc4s3)cc(C)cc2n1 [Example 602, (2R,3S)-3-((5-fluoro-2-(2-methoxy-7-methylquinoxalin-5-yl)benzo[d]thiazol-6-yl)oxy)butan-2-yl (6-aminopyridin-3-yl)carbamate]"
19,8.6,"COc1cnc2c(-c3nc4cc(F)c(O[C@@H](C)[C@@H](C)OC(=O)Nc5ccc6[nH]c(=O)oc6c5)nc4s3)cc(Cl)cc2c1 [Example 777, (2R,3S)-3-((2-(6-chloro-3-methoxyquinolin-8-yl)-6-fluorothiazolo[5,4-b]pyridin-5-yl)oxy) butan-2-yl (2-oxo-2,3-dihydrobenzo[d]oxazol-6-yl)carbamate]"
20,9.1,"COCc1cnc2c(-c3nc4cc(O)c(OC)cc4s3)cc(C)cc2n1 [Example 310, 6-methoxy-2-(2-(methoxymethyl)-7-methylquinoxalin-5-yl)benzo[d]thiazol-5-ol]"
21,2.6,"COc1cnc2c(-c3nc4c(Cl)c(F)c(O[C@@H](C)[C@@H](C)OC(=O)Nc5ccc(OC)nc5)cc4s3)cc(Cl)cc2c1 [Example 801, (2R,3S)-3-((4-chloro-2-(6-chloro-3-methoxyquinolin-8-yl)-5-fluorobenzo[d]thiazol-6-yl)oxy)butan-2-yl (6-methoxypyridin-3-yl)carbamate]"
22,870,"Cc1cc(-c2nc3cc(F)c(O[C@@H](C)[C@@H](C)OC(=O)Nc4cnc(C)nc4)cc3s2)c2ncc(C(=O)N(C)C)nc2c1 [Example 615, (2R,3S)-3-((2-(2-(dimethylcarbamoyl)-7-methylquinoxalin-5-yl)-5-fluorobenzo[d]thiazol-6-yl)oxy)butan-2-yl (2-methylpyrimidin-5-yl)carbamate]"
23,1.4,"COc1cc(C(O)C(C)(C)C)c2nc(-c3cc(C#N)cc4nc(OC)cnc34)sc2c1 (centres unmarked) [Example 639, 8-(4-(1-hydroxy-2,2-dimethylpropyl)-6-methoxybenzo[d]thiazol-2-yl)-3-methoxyquinoxaline-6-carbonitrile]"
24,9.1,"COc1cnc2c(-c3nc4cc(F)c(OC[C@@H](C)OC(=O)Nc5ccc(C(=O)N6CC[C@H](O)C6)nc5)cc4s3)cc(C)cc2n1 [Example 478, (R)-1-((5-fluoro-2-(2-methoxy-7-methylquinoxalin-5-yl)benzo[d]thiazol-6-yl)oxy)propan-2-yl (6-((S)-3-hydroxypyrrolidine-1-carbonyl)pyridin-3-yl)carbamate]"
25,350,"COc1cnc2c(-c3nc4c(Cl)c(F)c(OC[C@H]5CNC(=O)O5)cc4s3)cc(C)cc2n1 [Example 622, (R)-5-(((4-chloro-5-fluoro-2-(2-methoxy-7-methylquinoxalin-5-yl)benzo[d]thiazol-6-yl)oxy)methyl)oxazolidin-2-one]"
26,12,"COc1cnc2c(-c3nc4c(Cl)c(F)c(OCCOC(=O)Nc5cnc6c(c5)cc(C)n6C)cc4s3)cc(C)cc2n1 [Example 367, 2-((4-chloro-5-fluoro-2-(2-methoxy-7-methylquinoxalin-5-yl)benzo[d]thiazol-6-yl)oxy)ethyl (1,2-dimethyl-1H-pyrrolo[2,3-b]pyridin-5-yl)carbamate]"
27,4.3,"COc1cnc2c(-c3nc4cc(F)c(OC[C@@H](C)OC(=O)Nc5cnc(C(N)=O)nc5)nc4s3)cc(C)cc2n1 [Example 749, (R)-1-((6-fluoro-2-(2-methoxy-7-methylquinoxalin-5-yl)thiazolo[5,4-b]pyridin-5-yl)oxy) propan-2-yl (2-carbamoylpyrimidin-5-yl)carbamate]"
28,1.1,"CC[C@H](COc1cc2sc(-c3cc(C)cc4nc(OC)cnc34)nc2cc1F)OC(=O)Nc1cccnc1 [Example 517, (R)-1-((5-fluoro-2-(2-methoxy-7-methylquinoxalin-5-yl)benzo[d]thiazol-6-yl)oxy)butan-2-yl pyridin-3-ylcarbamate]"
29,5.4,"COc1cnc2c(-c3nc4c(Cl)cc(OCCNS(=O)(=O)c5ccccc5)cc4s3)cc(C)cc2n1 [Example 27, N-(2-((4-chloro-2-(2-methoxy-7-methylquinoxalin-5-yl)benzo[d]thiazol-6-yl)oxy)ethyl)benzenesulfonamide]"
